4 compounds from ChEMBL document CHEMBL1122090, “Species- or isozyme-specific enzyme inhibitors. 7. Selective effects in inhibitions of rat adenylate kinase isozymes by adenosine 5'-phosphate derivatives” (J Med Chem, 1982) can be followed below.

The inhibition is the relative decrease from the control value, in per cent. For orientation: Km means the substrate concentration at which the rate is half of its maximum.

Data set [1] in a line: Relative inhibition index was the ratio between AK-M and AK III. It is filed as functional.
Data set [2] deals with Adenylate kinase 2, mitochondrial (Rattus norvegicus) (UniProt P29410). As to the kind of experiment: Inhibition index was the ratio between KM of AMP and Ki of AK II. It is filed as functional.
The target is the same in data set [3]. The data set can be described thus: Relative Vmax value to rat adenylate kinase II.
Data set [4] has as its target T1, Adenylate kinase isoenzyme 1 (Rattus norvegicus) (UniProt P39069).
T1 sequence (whole entry): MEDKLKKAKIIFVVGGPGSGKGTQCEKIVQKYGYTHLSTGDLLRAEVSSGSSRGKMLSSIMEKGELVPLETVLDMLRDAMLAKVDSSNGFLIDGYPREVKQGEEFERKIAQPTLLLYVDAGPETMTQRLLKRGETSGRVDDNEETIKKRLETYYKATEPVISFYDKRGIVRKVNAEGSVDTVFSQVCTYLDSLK
As to the kind of experiment: Relative Vmax value to Adenylate kinase M isoenzyme (adenylate kinase 1, AK1).

The target of data set [5] is T1, Adenylate kinase isoenzyme 1 (Rattus norvegicus). The data set can be described thus: Inhibition index was the ratio between KM of AMP and Ki of AK M. It is filed as functional.
Data set [6] deals with GTP:AMP phosphotransferase AK3, mitochondrial (Rattus norvegicus) (UniProt P29411). As to the kind of experiment: Inhibition index was the ratio between KM of AMP and Ki of AK III. It is filed as functional.
Chain of GTP:AMP phosphotransferase AK3, mitochondrial (Rattus norvegicus) (P29411 whole entry): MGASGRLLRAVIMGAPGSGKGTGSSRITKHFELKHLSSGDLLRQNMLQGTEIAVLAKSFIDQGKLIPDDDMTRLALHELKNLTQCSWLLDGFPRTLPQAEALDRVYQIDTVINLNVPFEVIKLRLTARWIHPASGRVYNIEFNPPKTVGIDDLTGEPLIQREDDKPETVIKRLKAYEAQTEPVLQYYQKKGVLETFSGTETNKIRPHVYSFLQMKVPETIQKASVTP
The nature of data set [7]: Relative inhibition index was the ratio between AK-M and AK II. Format: functional.
Data set [8] addresses GTP:AMP phosphotransferase AK3, mitochondrial (Rattus norvegicus) (UniProt P29411). The data set can be described thus: Relative Vmax value to Adenylate kinase III.
Data set [9] shares this target. The data set can be described thus: Inhibitory constant of compound with Rat adenylate kinase IIl at 1.3 mM concentration in the presence of 0.65 mM AMP.
For data set [10] the target is unchanged. The data set can be described thus: Relative Vmax value to rat adenylate kinase III.
The target in data set [11] is T1, Adenylate kinase isoenzyme 1 (Rattus norvegicus). As to the kind of experiment: Inhibitory constant of compound with Rat adenylate kinase M isozyme at 1.3 mM concentration in the presence of 0.65 mM AMP.
Data set [12] has as its system CC[C@H](OP(=O)(O)O)[C@H]1OC(n2cnc3c(N)ncnc32)[C@H](O)[C@@H]1O. The data set can be described thus: (§1) Concentration of compound for half-maximal velocity to Adenylate kinase II.
Data set [13] has as its system Nc1ncnc2c1ncn2[C@@H]1O[C@H](/C=C/P(=O)(O)O)[C@@H](O)[C@H]1O. The description is as §1.
For data set [14], the system named is Nc1ncnc2c1ncn2[C@@H]1O[C@H](CCP(=O)(O)O)[C@@H](O)[C@H]1O. The data set is described as §1.
The test system of data set [15] is Nc1ncnc2c1ncn2[C@@H]1O[C@H](COP(=O)(O)O)[C@@H](O)[C@H]1O. Described as §1.
In data set [16] the test system is CNc1nc(N)c2ncn([C@@H]3O[C@H](COP(=O)(O)O)[C@@H](O)[C@H]3O)c2n1. The data set is described as §1.
Data set [17] deals with Nc1nc(N)c2ncn([C@@H]3O[C@H](COP(=O)(O)O)[C@@H](O)[C@H]3O)c2n1. The description is as §1.
The test system of data set [18] is CCC[C@H](OP(=O)(O)O)[C@H]1OC(n2cnc3c(N)ncnc32)[C@H](O)[C@@H]1O. The data set is described as §1.
For data set [19], the system named is C[C@@H]1[C@H](O)[C@@H](COP(=O)(O)O)O[C@H]1n1cnc2c(N)ncnc21. The data set is described as §1.
Data set [20] concerns Nc1nc(Cl)nc2c1ncn2[C@@H]1O[C@H](COP(=O)(O)O)[C@@H](O)[C@H]1O. Described as §1.
The subject of data set [21] is C[C@H](OP(=O)(O)O)[C@H]1OC(n2cnc3c(N)ncnc32)[C@H](O)[C@@H]1O. The description is as §1. It is filed as functional.
Data set [22] concerns the target Adenylate kinase 2, mitochondrial (Rattus norvegicus) (UniProt P29410). As to the kind of experiment: Relative Vmax value to Adenylate kinase II.

For the compound `Nc1ncnc2c1ncn2[C@@H]1O[C@H](/C=C/P(=O)(O)O)[C@@H](O)[C@H]1O`, the values for the Relative inhibition index in data set [1] and in data set [7] were 5.1 and 5.8, respectively. The Inhibition index in data set [2] came out at 0.05; in [5], 0.29; in [6] it was 0.057. The Relative Vmax in data set [3] worked out at 12; in data set [4] it was 2.1; in data set [8], 13.

As for `CNc1ncnc2c1ncn2[C@@H]1O[C@H](COP(=O)(O)O)[C@@H](O)[C@H]1O`, the Relative Vmax in data set [3], in data set [10] and in [4] was 0 throughout. Moreover, the inhibition in data set [9] and in data set [11] was 15% in each case.

On to “Adenylate kinase 2, mitochondrial (Rattus norvegicus) (from UniProt P29410)”, for which the Km worked out at 1400 µM in data set [12]; 1600 µM in data set [13]; 2500 µM in data set [14]; 80 µM in [15]; 3000 µM in [16]; 1600 µM in [17]. Moreover, the Km in data set [18] came out at 1100 µM; in data set [19] it was 910 µM; in [20] it was 1600 µM; in data set [21], 1300 µM.

For `CCC[C@H](OP(=O)(O)O)[C@H]1OC(n2cnc3c(N)ncnc32)[C@H](O)[C@@H]1O` (stereo partly specified), the figures for the Relative inhibition index in data set [1] and in data set [7] were 4.3 and 5.6, respectively. For the same compound, the Inhibition index in data set [2] is 0.073; in [5], 0.41; in [6], 0.096. Besides, the Relative Vmax in [22] was 1.3; in data set [10] it was 0.82; in data set [4], above 0.
